Test results published in patent publication US12433962B2, “Probes for imaging b-amyloid and inhibition of β-amyloid aggregation” (The Hong Kong University of Science and Technology, priority 2021, dated 2025).

How the values were obtained:
PC12 cell = assay: MTT cytotoxicity assay in PC12 cells; assay type: cell-based
Description: FIG. 7 depicts (A) Cytotoxicity towards […] PC-12 cells of Aβ monomer under 24 h and 48 h incubation. (B) Cytotoxicity of Aβ fibrils under 24 h and 48 h incubation. […] (D) Cell viability of different concentrations of DNTPH towards PC-12 cells under 24 h and 48 h incubation.

[1] = Emission and AIE properties in solvent mixtures; assay type: physicochemical
Excerpt: FIG. 2 depicts (A) Normalized absorption spectra of DCTB, DCPH and DNTPH in DMSO solution; (B) Normalized fluorescence (PL) spectra of DCTB, DCPH and DNTPH in aggregates; (C) Plot of the changes in fluorescence intensity with different water fraction (fw, in volume percentage, vol %), where I0 and I are the maximal fluorescence intensity recorded before and after adding water into the THF solution of DCTB. (D) Plot of the changes in fluorescence intensity with different toluene fractions (ft, in volume percentage, vol %), where I0 and I are the maximal fluorescence intensity recorded before and after adding toluene into the DMSO solution of DCPH and DNTPH respectively. [AIE dyes]=10 μM.
DCTB and DCPH were synthesized and their structure-activity relationship was investigated (FIG. 1).
However, to achieve a more obvious emission enhancement with low background signals, the TICT and AIE properties can be further modified. […] DNTPH was non-emissive in aqueous solution, and its NIR fluorescence at 683 nm was continuously intensified until the volume fraction of toluene (ft) […] was increased to about 40-fold (FIG. 2D). In addition, initial weedy fluorescence intensity of DNTPH in aqueous solution and the outstanding emission enhancement behavior in the aggregated state made it an ideal candidate for detecting protein fibrillogenesis, like Aβ aggregates.

[2] = Solubility in solvents and water; assay type: physicochemical
Aβ42 fibril = Aβ42 fibril (Homo sapiens, UniProt P05067); assay: Fluorescent response upon binding to Aβ42 fibrils in phosphate buffer; settings: titrated with Aβ42 fibril in phosphate buffer; dye 1 μM
Sequence of Aβ42 fibril (P05067 672-713 limits assumed): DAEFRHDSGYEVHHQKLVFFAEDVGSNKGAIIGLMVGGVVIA
Description: FIG. 4 depicts determination of the binding constant of DNTPH for Aβ42 aggregates. (A) Plot of the PL intensity as a function of the concentration of DNTPH in the presence of Aβ42 aggregates (3 μM) in PBS solution (pH=7.4); (B)Response time of DNTPH binding to Aβ42 aggregates. […] (D) Ultrahigh S/N ratio of DNTPH toward Aβ42 aggregates compared to the background signals in PBS and that towards BSA.
It was investigated whether DNTPH has a fluorescent response upon binding to Aβ aggregates. When DNTPH was titrated with the Aβ42 fibril in phosphate buffer, a strong and progressive increase (up to about 18-fold) in red fluorescence intensity concomitant was observed, which took ˜30 min to reach a plateau. Without wishing to be bound by theory, it is believed that DNTPH is capable of binding hydrophobic surfaces in aggregated amyloid fibrils with the help of the binding unit, resulting in the decrease of conformational freedom and rotational restriction. […] That is because these three probes show high background signals, which results in low S/N ratio even with a decent fluorescent response to testing objects.

Which cell death (PC12 cell; 20 μM, 48 h incubation) does the source give for Aβ monomer: monomeric amyloid-β peptide here?
Its cell death is 50%.

And the cytotoxicity (PC12 cell; 5-20 μM, less than 24 h of exposure)?
Its cytotoxicity is “No significant cytotoxicity”.

With `CCN(CC)c1ccc2cc(C=Cc3cc[n+](CCO)cc3)c(=O)oc2c1.[Br-]` [DCPH] as the compound, how does the emission maximum [1] read?
Its emission maximum is 690 nm.

What about the “PL intensity enhancement in aggregates compared with DMSO solution” value ([1]; DMSO/toluene mixtures, 99% toluene fraction (ft)) of the same compound?
The value was “about 2 fold”.

What about the solubility [2] of the same compound?
The solubility was “more soluble in water and polar solvent”.

For `Cc1ccc2c(c1)sc(-c1ccc(N(C)C)cc1)[n+]2C.[Cl-]` [ThT, thioflavin T], which “increase in fluorescence intensity (fluorescent response) to Aβ42 fibril” value (Aβ42 fibril) is on record?
The value was 5 fold.

With `CCN(CC)c1ccc2cc(C=C(C#N)c3nc4ccccc4s3)c(=O)oc2c1` [DCTB] as the compound, how does the emission maximum [1] read?
The emission maximum was 601 nm.

What about the “AIE effect, fluorescence intensity increase” value ([1]; THF/water, water fraction (fw) 70%) of the same compound?
Its value is “less than 2 fold”.

And the solubility [2]?
Its solubility is “soluble in THF but aggregated in water”.
